Experimental data from patent US20060148858A1, “1, 2-Azole derivatives with hypoglycemic and hypolipidemic activity” (priority 2002, published 2006).
Read-outs that look alike come from different tables or passages of the source.

Key:
[1] = biological target: T1, PPARδ-RXRα heterodimer (Homo sapiens, UniProt Q03181); experiment: PPARδ-RXRα heterodimer ligand activity, luciferase reporter in COS-1 transformant (Test Example 4); assay type: cell-based; settings: COS-1 transformant (hPPARδ, hRXRα, reporter), 36-48 hours, concentration for 50% of the maximum fold induction
T1 construct: expressed in transfected cells; host or cells: COS-1
T1 sequence (Q03181 1-441): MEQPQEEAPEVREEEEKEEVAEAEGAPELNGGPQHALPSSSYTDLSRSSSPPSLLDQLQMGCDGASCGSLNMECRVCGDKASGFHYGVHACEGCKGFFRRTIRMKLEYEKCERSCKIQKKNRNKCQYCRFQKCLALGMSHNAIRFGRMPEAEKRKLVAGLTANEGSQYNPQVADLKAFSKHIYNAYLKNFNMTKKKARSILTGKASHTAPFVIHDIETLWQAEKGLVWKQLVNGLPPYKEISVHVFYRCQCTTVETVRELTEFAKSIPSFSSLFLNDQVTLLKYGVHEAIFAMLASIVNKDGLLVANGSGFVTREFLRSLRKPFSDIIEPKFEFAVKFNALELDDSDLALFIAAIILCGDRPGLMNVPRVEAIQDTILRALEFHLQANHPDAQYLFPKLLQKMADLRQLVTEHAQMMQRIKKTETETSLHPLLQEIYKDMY
T1 sequence (P19793 1-462 partner): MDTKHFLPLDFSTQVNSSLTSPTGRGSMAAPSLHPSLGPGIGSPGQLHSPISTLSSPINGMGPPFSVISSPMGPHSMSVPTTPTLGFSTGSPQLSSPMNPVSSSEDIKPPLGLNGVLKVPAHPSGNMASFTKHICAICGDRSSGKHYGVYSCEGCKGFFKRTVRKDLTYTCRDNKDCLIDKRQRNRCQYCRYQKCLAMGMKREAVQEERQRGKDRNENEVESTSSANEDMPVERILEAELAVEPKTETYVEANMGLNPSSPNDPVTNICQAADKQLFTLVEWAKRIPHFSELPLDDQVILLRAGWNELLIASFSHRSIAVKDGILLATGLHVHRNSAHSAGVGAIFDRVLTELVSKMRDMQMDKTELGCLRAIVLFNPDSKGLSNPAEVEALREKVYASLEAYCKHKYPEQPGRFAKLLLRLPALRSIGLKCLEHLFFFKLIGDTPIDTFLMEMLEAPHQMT
Experimental: The transformant obtained in Reference Example 9a was suspended in DMEM medium (produced by Life Technologies, Inc., USA) containing 0.1% fatty acid-free bovine serum albumin (BSA) (produced by Wako Pure Chemical Industries, Ltd.), and inoculate to each well of a 96-well white plate (produced by Corning Costar Corporation, USA) by 80 μl at 1×10^4 cells/well. Then the test compound (20 μl) was added and cultured at 37° C. under 5% CO2 for 36-48 hours. After removing the medium from the 96-well white plate, 40 μl of PIKKAGENE LT 7.5 (produced by Wako Pure Chemical Industries, Ltd.) diluted twice with HBSS (HANKS' BALANCED SALT SOLUTION)(produced by BIO WHITTAKER Inc., USA), was added. After stirring, the luciferase activity was determined using 1420 ARVO Multilabel Counter (produced by PerkinElmer Inc., USA).
A fold induction was calculated based on the luciferase activity of each test compound by taking the luciferase activity in the non-treatment group as 1. The values of the test compound concentration and the fold induction were analyzed using PRISM (produced by GraphPad Software Inc. USA) to calculate the EC50 values, the effective concentration of a test compound for 50% of the maximum fold induction.
COS-1 cells were inoculated to a 150 cm^2 cell culture flask (produced by Corning Costar Corporation, USA) at the density of 5×10^6 cells/50 ml, and cultured at 37° C. under 5% CO2 conditions for 24 hours. Subsequently, a DNA was introduced into the cell under the condition shown below using Lipofectamine (produced by Invitrogen, USA).
First, Lipofectamine (125 μl), PLUS Reagent (100 μl, produced by Invitrogen, USA), plasmid pMCMVneo-hPPARδ (2.5 μg) obtained in Reference Example 3a, plasmid pMCMVneo-hRXRα (2.5 μg) obtained in Reference Example 4a and reporter plasmid pGL3-4ERPP-TK neo (5 μg) obtained in Reference Example 5a, and pRL-tk (5 μg, produced by Promega, USA) were mixed with opti-MEM (5 ml, produced by Invitrogen, USA) to give a transfection mixture.
Then, the above-mentioned transfection mixture and opti-MEM (20 ml) were added to COS-1 cells washed with opti-MEM, and the cells were cultured at 37° C. under 5% CO2 conditions for 3 hours. DMEM medium (25 ml, produced by Life Technologies, Inc., USA) containing 0.1% fatty acid-free bovine serum albumin (BSA) (produced by Wako Pure Chemical Industries, Ltd.) was added to the obtained COS-1 cells, and the cells were cultured at 37° C. under 5% CO2 conditions for 18-24 hours to give a transformant.

[2] = test system: KKAY mice; experiment: Hypoglycemic and hypolipidemic actions in mice (Test Example 1); assay type: in vivo; settings: Mus musculus, po, 96 h, 0.005% in powdery diet, four days, non-treated group taken as 100%
Experimental: Test compounds were mixed in a powdery diet (CE-2, Japan Clea) at the concentration of 0.005%, and freely given to KKAY mice (9 to 12 weeks old, 5 mice in a group), a model of obese and non-insulin dependent diabetes (type 2 diabetes), for four days. During this period, water was given freely. Blood was sampled from orbital venous plexus, and glucose and triglyceride levels in plasma separated from blood were determined enzymatically using L type Wako Glu2 (Wako Pure Chemical Industries, Ltd.) or L type Wako TG·H (Wako Pure Chemical Industries, Ltd.), respectively.
In the table, “hypoglycemic action (%)” means the rate of decrease (%) in the blood glucose level of the treated group when the blood glucose level of the non-treated group is taken as 100%. In addition, the “hypolipidemic action (%)” means the rate of decrease (%) in the blood triglyceride level of the treated group when the blood triglyceride level of the non-treated group is taken as 100%.

[3] = rate of decrease in blood glucose level, read-out: Hypoglycemic action (%)
[4] = rate of decrease in blood triglyceride level, read-out: Hypolipidemic action (%)

Compound	EC50 [1] [nM]	melting point [°C]	inhibition in vivo at 0.005 % in diet [2, 3] [%]	inhibition in vivo at 0.005 % in diet [2, 4] [%]
CCCc1nn(-c2ccc(C(F)(F)F)cn2)cc1CCCOc1cccc(CC(=O)O)c1 [Example 44, [3-(3-{3-propyl-1-[5-(trifluoromethyl)-2-pyridyl]-1H-pyrazol-4-yl}propoxy)phenyl]acetic acid]	3.9	106 to 107	–	–
CCCc1nn(-c2ccc(C(F)(F)F)cn2)cc1CCCOc1ccc(CC(=O)O)cc1 [Example 46, [4-(3-{3-propyl-1-[5-(trifluoromethyl)-2-pyridyl]-1H-pyrazol-4-yl}propoxy)phenyl]acetic acid]	6.4	101 to 102	–	–
CC(C)c1nn(-c2ccc(C(F)(F)F)cn2)cc1CCCCOc1cc(CCC(=O)O)n(-c2ccccc2)n1 [Example 49, 3-[3-(4-{3-isopropyl-1-[5-(trifluoromethyl)-2-pyridinyl]-1H-pyrazol-4-yl}butoxy)-1-phenyl-1H-pyrazol-5-yl]propanoic acid]	1.7	137 to 138	–	–
CC(C)c1nn(-c2ccc(C(F)(F)F)cn2)cc1CCCCOc1cccc(CC(=O)O)c1 [Example 51, [3-(4-{3-isopropyl-1-[5-(trifluoromethyl)-2-pyridinyl]-1H-pyrazol-4-yl}butoxy)phenyl]acetic acid]	3.9	–	–	–
CCOc1nn(-c2ccc(C(F)(F)F)cn2)cc1CCOc1cc(CCC(=O)O)n(-c2ccccc2)n1 [Example 56, 3-[3-(2-{3-ethoxy-1-[5-(trifluoromethyl)-2-pyridinyl]-1H-pyrazol-4-yl}ethoxy)-1-phenyl-1H-pyrazol-5-yl]propanoic acid]	2.8	155 to 156	–	–
CCCc1nn(-c2ccc(C(F)(F)F)cn2)cc1CCCCOc1cccc(CC(=O)O)c1 [Example 59, [3-(4-{3-propyl-1-[5-(trifluoromethyl)-2-pyridinyl]-1H-pyrazol-4-yl}butoxy)phenyl]acetic acid]	9.7	96 to 97	–	–
CCOc1nn(-c2ccc(C(F)(F)F)cn2)cc1CCOc1cccc(CC(=O)O)c1 [Example 62, [3-(2-{3-ethoxy-1-[5-(trifluoromethyl)-2-pyridinyl]-1H-pyrazol-4-yl}ethoxy)phenyl]acetic acid]	0.81	128 to 130	–	–
CCCc1nn(-c2ccc(C(F)(F)F)cn2)cc1CCCCOc1cc(CC(=O)O)ccc1OC [Example 63, [4-methoxy-3-(4-{3-propyl-1-[5-(trifluoromethyl)-2-pyridinyl]-1H-pyrazol-4-yl}butoxy)phenyl]acetic acid]	9.5	147 to 148	–	–
CC(C)c1nn(-c2ccc(C(F)(F)F)cn2)cc1CCCOc1ccccc1CC(=O)O [Example 179, [2-(3-{3-isopropyl-1-[5-(trifluoromethyl)-2-pyridyl]-1H-pyrazol-4-yl}propoxy)phenyl]acetic acid]	–	132 to 133	34	37
COc1cccc(CC(=O)O)c1OCCCCc1cn(-c2ccc(C(F)(F)F)cn2)nc1C(C)C [Example 180, [2-(4-{3-isopropyl-1-[5-(trifluoromethyl)-2-pyridyl]-1H-pyrazol-4-yl}butoxy)-3-methoxyphenyl]acetic acid]	–	144 to 145	32	36
CC(C)c1nn(-c2ccc(C(F)(F)F)cn2)cc1CCCOc1c(F)cccc1CC(=O)O [Example 207, [3-fluoro-2-(3-{3-isopropyl-1-[5-(trifluoromethyl)-2-pyridyl]-1H-pyrazol-4-yl}propoxy)phenyl]acetic acid]	–	140 to 141	49	72
COc1cccc(CC(=O)O)c1OCCCc1cn(-c2ncc(C(F)(F)F)cc2Cl)nc1C(C)C [Example 217, [2-(3-{1-[3-chloro-5-(trifluoromethyl)-2-pyridyl]-3-isopropyl-1H-pyrazol-4-yl}propoxy)-3-methoxyphenyl]acetic acid]	–	96 to 97	34	18
CCCC(C)c1nn(-c2ccc(C(F)(F)F)cn2)cc1CCCOc1c(C)cccc1CC(=O)O (stereo not drawn) [Example 222, [3-methyl-2-(3-{3-(1-methylbutyl)-1-[5-(trifluoromethyl)-2-pyridyl]-1H-pyrazol-4-yl}propoxy)phenyl]acetic acid]	–	147 to 148	36	54
CCc1cccc(CC(=O)O)c1OCCCc1cn(-c2ccc(C(F)(F)F)cn2)nc1C(CC)CC [Example 241, [3-ethyl-2-(3-{3-(1-ethylpropyl)-1-[5-(trifluoromethyl)-2-pyridinyl]-1H-pyrazol-4-yl}propoxy)phenyl]acetic acid]	–	130 to 131	38	27
CCc1cccc(CC(=O)O)c1OCCCc1cn(-c2ccc(Br)cn2)nc1C(C)C [Example 247, (2-{3-[1-(5-bromo-2-pyridinyl)-3-isopropyl-1H-pyrazol-4-yl]propoxy}-3-ethylphenyl)acetic acid]	–	152	25	34
calcium 2-[3-(3-{3-ethoxy-1-[4-(trifluoromethyl)phenyl]-1H-pyrazol-4-yl}propoxy)phenoxy]-2-methylpropanoate [Example 105]	7.2	–	–	–
calcium 2-[3-(4-{3-ethoxy-1-[5-(trifluoromethyl)-2-pyridinyl]-1H-pyrazol-4-yl}butoxy)phenoxy]-2-methylpropanoate [Example 102]	9.1	–	–	–
calcium 3-[3-ethoxy-1-(4-{3-ethoxy-1-[5-(trifluoromethyl)-2-pyridinyl]-1H-pyrazol-4-yl}butyl)-1H-pyrazol-4-yl]propanoate [Example 110]	4.6	–	–	–
